Data set [1] can be described thus: Oxidative metabolic stability in human liver microsomes assessed as compound remaining at 2 uM after 30 mins. The note with it: read-out: Stability. Format: ADME, Microsome.
In data set [2] the target is Platelet-derived growth factor receptor alpha (Homo sapiens) (UniProt P16234). The data set is described as follows: Inhibition of PDGFRA at 10 uM after 60 mins by TR-FRET assay. (In general: Time-resolved FRET reads energy transfer from a long-lived donor to a nearby acceptor.)
Chain of Platelet-derived growth factor receptor alpha (Homo sapiens) (P16234 whole entry): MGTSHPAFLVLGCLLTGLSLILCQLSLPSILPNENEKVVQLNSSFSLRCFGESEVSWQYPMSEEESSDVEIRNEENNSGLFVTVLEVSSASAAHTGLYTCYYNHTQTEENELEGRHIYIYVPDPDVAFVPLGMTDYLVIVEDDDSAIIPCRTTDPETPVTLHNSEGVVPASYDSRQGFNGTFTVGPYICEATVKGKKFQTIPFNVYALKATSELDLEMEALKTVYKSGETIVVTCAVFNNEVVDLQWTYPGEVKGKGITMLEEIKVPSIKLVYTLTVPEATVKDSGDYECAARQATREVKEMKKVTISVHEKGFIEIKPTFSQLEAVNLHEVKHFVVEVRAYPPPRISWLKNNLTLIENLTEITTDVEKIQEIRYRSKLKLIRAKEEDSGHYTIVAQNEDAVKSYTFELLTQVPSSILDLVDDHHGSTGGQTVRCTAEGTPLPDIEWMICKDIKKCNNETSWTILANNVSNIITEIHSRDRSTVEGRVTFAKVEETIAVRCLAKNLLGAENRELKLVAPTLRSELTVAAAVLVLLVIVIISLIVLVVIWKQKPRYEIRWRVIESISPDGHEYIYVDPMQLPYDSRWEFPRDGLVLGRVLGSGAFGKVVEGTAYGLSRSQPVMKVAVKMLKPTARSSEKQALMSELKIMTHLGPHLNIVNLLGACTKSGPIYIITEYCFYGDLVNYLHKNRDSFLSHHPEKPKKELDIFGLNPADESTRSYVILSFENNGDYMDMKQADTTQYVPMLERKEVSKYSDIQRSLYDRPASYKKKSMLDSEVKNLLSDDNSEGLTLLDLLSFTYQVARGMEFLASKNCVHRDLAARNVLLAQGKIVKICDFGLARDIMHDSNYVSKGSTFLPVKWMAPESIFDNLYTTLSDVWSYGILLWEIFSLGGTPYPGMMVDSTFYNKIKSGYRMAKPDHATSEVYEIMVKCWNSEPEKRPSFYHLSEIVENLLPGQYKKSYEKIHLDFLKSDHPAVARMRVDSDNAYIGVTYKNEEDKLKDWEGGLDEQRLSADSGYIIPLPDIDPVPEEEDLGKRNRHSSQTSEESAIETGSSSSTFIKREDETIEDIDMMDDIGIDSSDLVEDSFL
Data set [3] has as its target Mitogen-activated protein kinase 10 (Homo sapiens, UniProt P53779). The experiment in a line: Inhibition of recombinant JNK3 after 60 mins by TR-FRET assay.
Data set [4] deals with Tyrosine-protein kinase ABL1 (Homo sapiens) (UniProt P00519). The data set is described as follows: Inhibition of ABL1 at 10 uM after 60 mins by TR-FRET assay.
The target of data set [5] is Tyrosine-protein kinase Lck (Homo sapiens) (UniProt P06239). The experiment in a line: Inhibition of LCK at 10 uM after 60 mins by TR-FRET assay.
Chain of Tyrosine-protein kinase Lck (Homo sapiens) (P06239 2-509 limits assumed): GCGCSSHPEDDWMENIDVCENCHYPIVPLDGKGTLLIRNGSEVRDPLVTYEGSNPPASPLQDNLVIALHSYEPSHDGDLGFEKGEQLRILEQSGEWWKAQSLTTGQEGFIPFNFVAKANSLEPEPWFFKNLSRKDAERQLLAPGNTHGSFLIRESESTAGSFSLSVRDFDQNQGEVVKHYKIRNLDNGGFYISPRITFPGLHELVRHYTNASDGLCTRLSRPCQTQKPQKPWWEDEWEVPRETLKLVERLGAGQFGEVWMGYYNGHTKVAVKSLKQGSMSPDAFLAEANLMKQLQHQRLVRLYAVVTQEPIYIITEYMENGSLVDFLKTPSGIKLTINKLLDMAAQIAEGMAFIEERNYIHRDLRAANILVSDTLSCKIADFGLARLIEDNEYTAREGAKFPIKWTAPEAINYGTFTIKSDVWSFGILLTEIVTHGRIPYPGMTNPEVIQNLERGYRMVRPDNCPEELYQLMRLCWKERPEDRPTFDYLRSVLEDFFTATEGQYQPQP
In data set [6] the target is T1, Aurora kinase A (Homo sapiens) (UniProt O14965).
T1 sequence (whole entry): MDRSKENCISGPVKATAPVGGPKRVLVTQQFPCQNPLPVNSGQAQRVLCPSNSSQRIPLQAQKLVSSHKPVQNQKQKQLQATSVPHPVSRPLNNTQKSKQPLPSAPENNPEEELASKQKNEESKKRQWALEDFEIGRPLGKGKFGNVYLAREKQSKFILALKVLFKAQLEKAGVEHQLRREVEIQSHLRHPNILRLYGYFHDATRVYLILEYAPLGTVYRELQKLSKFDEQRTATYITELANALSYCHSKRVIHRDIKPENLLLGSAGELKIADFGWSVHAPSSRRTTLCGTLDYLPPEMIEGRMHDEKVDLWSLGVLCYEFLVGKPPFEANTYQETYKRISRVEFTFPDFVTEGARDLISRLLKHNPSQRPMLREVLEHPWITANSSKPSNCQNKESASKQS
The data set is described as follows: Inhibition of Aurora A at 10 uM after 60 mins by TR-FRET assay.

The target of data set [7] is Cyclin-dependent kinase 1/cyclin B (Homo sapiens) (UniProt P06493+P14635+Q8WWL7+O95067). The experiment in a line: Inhibition of CDK1/cyclin B at 10 uM after 60 mins by TR-FRET assay. It counts as protein-complex assay.
Data set [8] concerns the target Serine/threonine-protein kinase PAK 4 (Homo sapiens) (UniProt O96013). The experiment in a line: Inhibition of PAK4 at 10 uM after 60 mins by TR-FRET assay.
Data set [9] in a line: Efflux ratio, ratio of permeability from apical to basolateral in MDCK2 cells over expressing MDR1 in presence of P-gp inhibitor to permeability from apical to basolateral in MDCK2 cells over expressing MDR1 in absence of P-gp inhibitor at 5 uM after 120 mins. Format: ADME, cell-based, Canis lupus familiaris. As to conditions: dog, mdck-ii, 2 h.
The nature of data set [10]: Apparent permeability of the compound from apical to basolateral direction in MDCK2 cells at 5 uM after 120 mins. It counts as ADME, cell-based, Canis lupus familiaris, MDCK-II. As to conditions: dog, MDCK.
In data set [11] the target is T2, Serine/threonine-protein kinase Chk1 (Homo sapiens) (UniProt O14757).
T2 sequence (whole entry): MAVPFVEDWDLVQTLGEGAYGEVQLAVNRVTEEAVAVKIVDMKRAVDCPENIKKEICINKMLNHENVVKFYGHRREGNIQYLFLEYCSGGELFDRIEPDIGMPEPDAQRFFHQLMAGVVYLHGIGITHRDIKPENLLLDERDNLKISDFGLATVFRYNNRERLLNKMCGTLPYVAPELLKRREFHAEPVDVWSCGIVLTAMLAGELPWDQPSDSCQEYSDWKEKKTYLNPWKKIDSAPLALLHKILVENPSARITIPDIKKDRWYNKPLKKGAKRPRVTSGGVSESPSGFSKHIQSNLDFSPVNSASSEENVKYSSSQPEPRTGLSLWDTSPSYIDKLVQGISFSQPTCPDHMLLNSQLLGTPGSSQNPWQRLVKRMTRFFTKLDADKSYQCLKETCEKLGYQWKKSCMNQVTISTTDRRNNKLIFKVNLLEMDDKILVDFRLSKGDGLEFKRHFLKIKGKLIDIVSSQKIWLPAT
The experiment in a line: Inhibition of CHEK1 at 10 uM after 60 mins by TR-FRET assay.

Data set [12] deals with Mitogen-activated protein kinase 14 (Homo sapiens, UniProt Q16539). The data set is described as follows: Inhibition of recombinant p38alpha after 60 mins by TR-FRET assay.
Chain of Mitogen-activated protein kinase 14 (Q16539 whole entry): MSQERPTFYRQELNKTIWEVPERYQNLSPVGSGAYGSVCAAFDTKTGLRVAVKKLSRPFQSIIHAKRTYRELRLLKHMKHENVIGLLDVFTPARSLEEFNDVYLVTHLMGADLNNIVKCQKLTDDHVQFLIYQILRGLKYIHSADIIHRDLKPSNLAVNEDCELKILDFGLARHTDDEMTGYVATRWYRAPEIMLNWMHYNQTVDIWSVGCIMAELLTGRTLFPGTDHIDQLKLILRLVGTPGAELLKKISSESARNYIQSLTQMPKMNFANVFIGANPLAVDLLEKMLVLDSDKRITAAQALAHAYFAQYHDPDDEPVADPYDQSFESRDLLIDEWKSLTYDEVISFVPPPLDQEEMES
Data set [13] is described as follows: Neuroprotective activity in human cortical neurons assessed as inhibition of amyloid-beta-induced toxicity after 2 to 3 days. It counts as functional. As to conditions: cortical neurone.
Data set [14] concerns the target Mitogen-activated protein kinase 9 (Homo sapiens, UniProt P45984). The data set is described as follows: Inhibition of recombinant JNK2 after 60 mins by TR-FRET assay.
Data set [15] in a line: Oxidative metabolic stability in mouse liver microsomes assessed as compound remaining at 2 uM after 30 mins. It counts as ADME, Microsome. As to conditions: read-out: Stability. For orientation: Liver microsomes are vesicles of endoplasmic reticulum, rich in cytochrome P450 enzymes.
Data set [16] has as its target T3, Dual specificity protein kinase TTK (Homo sapiens) (UniProt P33981).
T3 sequence (whole entry): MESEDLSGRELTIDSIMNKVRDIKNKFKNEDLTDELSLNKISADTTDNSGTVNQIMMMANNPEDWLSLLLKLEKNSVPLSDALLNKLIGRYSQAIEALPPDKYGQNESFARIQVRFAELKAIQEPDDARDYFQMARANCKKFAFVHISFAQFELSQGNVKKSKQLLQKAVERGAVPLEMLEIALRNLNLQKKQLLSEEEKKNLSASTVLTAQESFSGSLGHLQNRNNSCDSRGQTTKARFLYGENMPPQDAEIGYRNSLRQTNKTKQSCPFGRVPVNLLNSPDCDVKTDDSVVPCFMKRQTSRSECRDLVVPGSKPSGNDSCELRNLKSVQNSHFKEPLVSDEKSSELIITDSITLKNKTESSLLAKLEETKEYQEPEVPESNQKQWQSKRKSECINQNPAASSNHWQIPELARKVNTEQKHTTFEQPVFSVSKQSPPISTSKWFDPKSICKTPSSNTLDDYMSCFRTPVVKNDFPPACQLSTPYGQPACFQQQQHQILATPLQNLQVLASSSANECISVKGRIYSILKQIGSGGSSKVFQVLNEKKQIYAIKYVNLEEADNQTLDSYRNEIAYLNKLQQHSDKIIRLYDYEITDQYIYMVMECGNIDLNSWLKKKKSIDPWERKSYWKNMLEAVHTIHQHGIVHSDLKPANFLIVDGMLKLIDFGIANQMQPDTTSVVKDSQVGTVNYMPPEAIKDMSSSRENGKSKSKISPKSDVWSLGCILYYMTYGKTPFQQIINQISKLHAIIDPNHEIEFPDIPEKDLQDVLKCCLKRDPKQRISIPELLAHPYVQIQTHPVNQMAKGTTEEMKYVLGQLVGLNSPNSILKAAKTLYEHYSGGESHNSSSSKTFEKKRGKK
The experiment in a line: Inhibition of TTK at 10 uM after 60 mins by TR-FRET assay.

Data set [17] has as its target Tyrosine-protein kinase JAK1 (Homo sapiens) (UniProt P23458). The experiment in a line: Inhibition of JAK1 at 10 uM after 60 mins by TR-FRET assay.
The target of data set [18] is Serine/threonine-protein kinase 16 (Homo sapiens) (UniProt O75716). The experiment in a line: Inhibition of STK16 at 10 uM after 60 mins by TR-FRET assay.
Chain of Serine/threonine-protein kinase 16 (Homo sapiens) (O75716 whole entry): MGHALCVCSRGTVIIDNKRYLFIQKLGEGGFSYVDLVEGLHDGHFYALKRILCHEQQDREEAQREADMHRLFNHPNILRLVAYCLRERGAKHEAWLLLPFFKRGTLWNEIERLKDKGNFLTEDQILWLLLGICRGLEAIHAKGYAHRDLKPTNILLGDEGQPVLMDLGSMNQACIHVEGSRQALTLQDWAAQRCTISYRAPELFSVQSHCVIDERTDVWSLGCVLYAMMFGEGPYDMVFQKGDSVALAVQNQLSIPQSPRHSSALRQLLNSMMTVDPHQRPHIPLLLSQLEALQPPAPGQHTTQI
Data set [19] addresses Protein-tyrosine kinase 2-beta (Homo sapiens) (UniProt Q14289). The data set is described as follows: Inhibition of PTK2B at 10 uM after 60 mins by TR-FRET assay.

Chain of Protein-tyrosine kinase 2-beta (Homo sapiens) (Q14289 whole entry, looked up): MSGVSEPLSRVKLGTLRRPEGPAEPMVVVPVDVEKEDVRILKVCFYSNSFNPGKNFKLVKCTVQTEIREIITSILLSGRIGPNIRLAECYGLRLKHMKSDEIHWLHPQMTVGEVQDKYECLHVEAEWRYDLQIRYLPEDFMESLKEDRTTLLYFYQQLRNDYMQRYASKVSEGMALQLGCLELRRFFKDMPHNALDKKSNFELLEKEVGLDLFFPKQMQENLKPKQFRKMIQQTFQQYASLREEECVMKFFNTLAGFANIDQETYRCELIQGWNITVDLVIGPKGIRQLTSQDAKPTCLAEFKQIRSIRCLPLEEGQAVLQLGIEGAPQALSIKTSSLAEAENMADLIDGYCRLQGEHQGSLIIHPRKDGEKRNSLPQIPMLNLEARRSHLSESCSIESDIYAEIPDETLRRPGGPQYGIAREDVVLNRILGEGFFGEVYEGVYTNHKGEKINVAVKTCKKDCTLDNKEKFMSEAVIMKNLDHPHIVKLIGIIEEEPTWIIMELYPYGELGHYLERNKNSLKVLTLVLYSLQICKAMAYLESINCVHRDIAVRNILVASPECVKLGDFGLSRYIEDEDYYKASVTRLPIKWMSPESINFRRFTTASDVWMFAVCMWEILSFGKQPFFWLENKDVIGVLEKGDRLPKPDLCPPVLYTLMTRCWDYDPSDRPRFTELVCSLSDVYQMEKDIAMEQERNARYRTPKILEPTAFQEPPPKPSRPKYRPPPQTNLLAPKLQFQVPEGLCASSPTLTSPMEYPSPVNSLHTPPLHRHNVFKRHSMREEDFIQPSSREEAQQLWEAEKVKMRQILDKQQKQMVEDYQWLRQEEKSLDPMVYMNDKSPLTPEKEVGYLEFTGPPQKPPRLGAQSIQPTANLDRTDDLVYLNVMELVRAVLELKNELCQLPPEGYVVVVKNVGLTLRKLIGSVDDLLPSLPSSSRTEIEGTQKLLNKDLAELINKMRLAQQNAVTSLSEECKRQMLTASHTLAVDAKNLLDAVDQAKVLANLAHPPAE
Chain of Serine/threonine-protein kinase PAK 4 (Homo sapiens) (O96013 whole entry, looked up): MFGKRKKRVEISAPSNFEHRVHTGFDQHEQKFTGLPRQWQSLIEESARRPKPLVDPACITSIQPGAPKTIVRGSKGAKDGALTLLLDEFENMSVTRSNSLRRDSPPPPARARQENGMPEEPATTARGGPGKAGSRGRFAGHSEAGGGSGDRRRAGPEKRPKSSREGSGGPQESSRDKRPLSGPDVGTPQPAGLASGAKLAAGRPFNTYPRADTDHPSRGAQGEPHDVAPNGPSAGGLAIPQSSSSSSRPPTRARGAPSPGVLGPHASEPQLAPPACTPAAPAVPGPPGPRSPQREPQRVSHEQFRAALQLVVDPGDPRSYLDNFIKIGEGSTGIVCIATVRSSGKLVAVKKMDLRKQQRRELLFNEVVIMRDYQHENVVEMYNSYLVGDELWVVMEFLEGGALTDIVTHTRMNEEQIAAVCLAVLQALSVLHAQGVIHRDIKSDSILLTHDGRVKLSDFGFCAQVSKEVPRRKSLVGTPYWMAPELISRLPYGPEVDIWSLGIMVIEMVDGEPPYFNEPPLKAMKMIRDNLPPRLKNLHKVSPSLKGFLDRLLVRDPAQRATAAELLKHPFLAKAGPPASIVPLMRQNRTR
Chain of Mitogen-activated protein kinase 10 (P53779 whole entry): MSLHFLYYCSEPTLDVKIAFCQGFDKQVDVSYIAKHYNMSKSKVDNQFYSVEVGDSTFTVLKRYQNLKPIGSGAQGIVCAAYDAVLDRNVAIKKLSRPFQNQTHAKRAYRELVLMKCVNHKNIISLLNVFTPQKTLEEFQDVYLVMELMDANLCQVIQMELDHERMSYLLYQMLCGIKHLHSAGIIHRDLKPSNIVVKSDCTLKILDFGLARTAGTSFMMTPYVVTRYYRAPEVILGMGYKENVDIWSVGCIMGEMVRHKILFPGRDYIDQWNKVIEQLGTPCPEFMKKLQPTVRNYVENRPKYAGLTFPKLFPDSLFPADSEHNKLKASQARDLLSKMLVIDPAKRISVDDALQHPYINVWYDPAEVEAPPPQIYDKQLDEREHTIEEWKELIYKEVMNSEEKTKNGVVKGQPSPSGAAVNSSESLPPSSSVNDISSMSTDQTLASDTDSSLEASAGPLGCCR
Chain of Mitogen-activated protein kinase 9 (P45984 whole entry): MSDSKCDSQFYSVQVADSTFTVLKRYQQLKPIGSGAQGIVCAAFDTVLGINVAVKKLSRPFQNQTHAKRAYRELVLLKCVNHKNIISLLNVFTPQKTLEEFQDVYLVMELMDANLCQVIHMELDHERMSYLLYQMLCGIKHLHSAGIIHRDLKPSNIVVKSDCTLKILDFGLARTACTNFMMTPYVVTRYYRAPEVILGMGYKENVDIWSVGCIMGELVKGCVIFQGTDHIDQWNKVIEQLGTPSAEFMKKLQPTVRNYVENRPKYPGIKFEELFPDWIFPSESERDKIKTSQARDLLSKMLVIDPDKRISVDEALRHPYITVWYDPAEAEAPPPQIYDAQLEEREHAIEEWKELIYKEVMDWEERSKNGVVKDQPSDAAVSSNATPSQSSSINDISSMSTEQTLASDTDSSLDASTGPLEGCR

As for `O=c1[nH]nc(-c2ccnc(NC3CCCCC3)c2)n1-c1ccc2ccccc2c1`, the remaining at 0.5 h, 2 µM is 57% in [1] and 2.6% in data set [15]. Further, the inhibition in data set [2] is 1%; in data set [4] it was 4%; in data set [5], -10%; in data set [6] it was 17%; in [7] it was 5%; in data set [8] it was -2%. Also, the inhibition in data set [11] was -5%; in data set [16], 10%; in data set [17] it was 1%; in [18], -1%; in data set [19], -3%. The figures for the concentration for half-maximal inhibition (IC50) in [3], in data set [12] and in [14] were 24 nM, more than 50 µM and 69 nM, respectively. Besides, in data set [9], the Ratio was determined as 2.6. In data set [10], the Papp A→B at 2 h, 5 µM stood at 0.9 ×10⁻⁶ cm/s. Moreover, the concentration giving a half-maximal response (EC50) in [13] was more than 50 µM.
For the molecule `O=c1n(Cc2ccccn2)nc(-c2ccnc(NC3CCOCC3)c2)n1-c1ccc2ccccc2c1`, the results for the remaining at 0.5 h, 2 µM in data set [1] and in data set [15] were 40% and 1.4%, respectively. Further, the inhibition is -10% in [2]; 1% in [4]; -2% in data set [5]; 2% in data set [6]; 2% in data set [7]; -9% in [11]. In addition, the inhibition was 0% in data set [16], -9% in data set [18] and -7% in data set [19]. The IC50 in data set [3] is 54 nM; in [12], more than 50 µM; in data set [14], 93 nM. For the same molecule, the Ratio in [9] is 1.4. Also, in data set [10], the apical-to-basolateral permeability (Papp A→B) at 2 h, 5 µM stood at 18.5 ×10⁻⁶ cm/s.
`O=c1n(Cc2ccncc2)nc(-c2ccnc(NC3CCCCC3)c2)n1-c1ccc2ccccc2c1`: the remaining at 0.5 h, 2 µM in [1] is 2%; in data set [15] it was 48%. The inhibition was 1% in data set [2]; -2% in data set [4]; 9% in data set [5]; -5% in data set [6]; 8% in data set [7]; -1% in data set [8]. For the same molecule, the values for the inhibition in [11], in data set [17] and in data set [19] were -9%, -4% and 6%, respectively. The IC50 in data set [3] is 29 nM; in [12] it was more than 50 µM; in data set [14] it was 97 nM. In [10], the Papp A→B at 2 h, 5 µM came to 8.1 ×10⁻⁶ cm/s. Besides, in [13], the 50% effective concentration (EC50) amounted to 12 µM.
As to `O=c1n(C2CCOCC2)nc(-c2ccnc(NC3CCCCC3)c2)n1-c1ccc2ccccc2c1`, the inhibition in data set [2] is 7%; in data set [4] it was 5%; in data set [5] it was -6%; in data set [6], 0%; in [7] it was 4%; in [8], 27%. Moreover, the inhibition in [11] is -4%; in [16], 3%; in data set [17], 1%; in data set [19] it was -2%. Also, the half-inhibitory concentration (IC50) in data set [12] was more than 50 µM; in [14], 97 nM.
Regarding `O=c1[nH]nc(-c2ccnc(NC3CCOCC3)c2)n1-c1ccc2ccccc2c1`, the results for the remaining at 0.5 h, 2 µM in data set [1] and in data set [15] were 73% and 12%, respectively. Also, the inhibition in [2] is 1%; in [4] it was 5%; in [5] it was -3%; in [6], 30%; in data set [7] it was 10%; in data set [16], 44%. Moreover, the inhibition in data set [17] was -3%; in data set [18], 38%; in [19] it was 2%. Moreover, the half-maximal inhibitory concentration (IC50) in data set [3] is 85 nM; in data set [12], more than 50 µM; in data set [14] it was 250 nM. For the same molecule, the Ratio in [9] turned out to be 12. The Papp A→B at 2 h, 5 µM in data set [10] was 15.7 ×10⁻⁶ cm/s.
As to `O=c1[nH]nc(-c2ccnc(NC3CCCOC3)c2)n1-c1ccc2ccccc2c1` (stereo not drawn), the inhibition in [2] was 12%; in [4], 17%; in data set [5] it was 4%; in data set [6], 10%; in [7] it was 4%; in [8], 69%. In addition, the inhibition in data set [11] is -9%; in [16], 30%; in [17] it was 1%; in data set [18], 21%; in data set [19], 11%. Further, the half-maximal inhibitory concentration (IC50) in [3] was 32 nM; in data set [12], more than 50 µM; in [14], 130 nM.

As a reminder, the inhibition is the change of the read-out against control, counted positive when it falls. In general, IC50 refers to the concentration that inhibits the measured activity by half. Broadly, the Papp A→B is the apparent permeability from the apical to the basolateral side of a cell layer. In general, EC50 refers to the concentration that produces a half-maximal response.

(Values after ChEMBL document CHEMBL1641539 (Bioorg Med Chem Lett, 2011).)
